Results reported in patent publication US20060252699A1, “Method for lowering serum homocysteine” (priority 2004, published 2006).
“And” between values parts separate entries of the source, which are not always exact repeats. Identical values can stand only once.

What was measured:
[1] = tested on: methylmalonyl CoA mutase (MCM); settings: brain astrocytes, in vitro; cited from earlier work
[2] = tested on: serum homocysteine; experiment: L-isoleucine therapy for 10 weeks in postmenopausal women: serum homocysteine; assay type: in vivo, human
Procedure: L-isoleucine therapy (3-5 grams/day divided into two doses per day) was administered to 17 postmenopausal women for 10 weeks. The L-isoleucine therapy was associated with an 11% average reduction in serum homocysteine levels among 14 post menopausal woman experiencing hot flashes.

Compound | upregulation of the expression of MCM message [1] [fold] | average reduction in serum homocysteine levels ([2]; among 14 post menopausal women experiencing hot flashes, 10 weeks) [%] | reduction in serum homocysteine ([2]; in 2 participants) [%] | reduction in serum homocysteine ([2]; in 5 participants) [%] | homocysteine ([2]; individual participants, 10 week values (l), L-isoleucine 3-5 grams/day divided into two doses) | % reduction (homocysteine) ([2]; individual participants, 10 week vs baseline, given as fraction)
CCC(=O)SCCNC(=O)CCNC(=O)[C@H](O)C(C)(C)COP(=O)(O)OP(=O)(O)OC[C@H]1O[C@@H](n2cnc3c(N)ncnc32)[C@H](O)[C@@H]1OP(=O)(O)O [propionyl CoA] | 4 |  |  |  |  | 
CC(C)[C@H](N)C(=O)O [valine] | 4 |  |  |  |  | 
CC[C@H](C)[C@H](N)C(=O)O [L-isoleucine] | 4 | 11 | > 30 | > 20 | 9.8 umol/L and 4.8 umol/L and 7 umol/L (2×) and 7.1 umol/L and 8.7 umol/L and 7.9 umol/L and 6.1 umol/L and 10.8 umol/L and 8.3 umol/L (2×) and 5.1 umol/L and 6.6 umol/L and 6.7 umol/L | 0.3043 and 0.2473 and 0.01389 and 0 and 0.1319 and 0.04688 and 0.01408 and 0.009174 and −0.2388 and 0.03488 and 0.1774 and 0.2235 and 0.3021 and 0.2632
